{"source": "patent US20200129582A1", "about": "“NOVEL PEPTIDES AND PEPTIDOMIMETICS” (UNIVERSITY OF AUCKLAND, priority 2016, published 2020)", "target": "T1, coupled gap junction channels in hCMVEC cells (Homo sapiens, UniProt P17302)", "T1 construct": "A confluent monolayer of hCMVECs was pre-incubated in Peptide5; endogenous in cells; host or cells: hCMVEC", "T1 sequence (P17302 2-382 limits assumed)": "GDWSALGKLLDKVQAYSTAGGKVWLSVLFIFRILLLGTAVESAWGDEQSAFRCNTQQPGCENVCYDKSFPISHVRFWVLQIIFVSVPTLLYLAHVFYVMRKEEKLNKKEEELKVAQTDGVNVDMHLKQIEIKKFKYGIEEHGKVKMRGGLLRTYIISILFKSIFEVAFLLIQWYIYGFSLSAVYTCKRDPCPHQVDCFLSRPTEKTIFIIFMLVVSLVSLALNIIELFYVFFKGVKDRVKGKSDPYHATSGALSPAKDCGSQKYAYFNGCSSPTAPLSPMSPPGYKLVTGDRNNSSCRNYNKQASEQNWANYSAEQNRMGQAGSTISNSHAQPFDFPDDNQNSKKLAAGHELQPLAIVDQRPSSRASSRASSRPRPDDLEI", "format": "cell-based", "protocol": "(§1) The hCMVEC cells were plated in 1 μg/cm^2 collagen I (Gibco) 12-well plate at a density of 0.4×10^6 cells per well, and cultured overnight. A confluent monolayer of hCMVECs was pre-incubated in Peptide5 (5-100 μM) dissolved in culture medium for 2 hours or 24 hours. CBX at a concentration of 100 μM was used as a positive control. Cells were washed three times with phosphate buffered saline (PBS) without Ca^2+ or Mg^2+. The cells were then incubated in 0.05% Lucifer Yellow (LY) (Sigma), a fluorescent dye that is transferred through coupled gap junction channels (el-Fouly et al., 1987, Experimental cell research 168:422-430), +/−Peptide5 dissolved in PBS, and scrape-wounded with a size 10 carbon steel surgical blade (Swann-Morton, England). Following 5-minute incubation at 37° C. in 95% O2 and 5% CO2 without light, the 0.05% LY solution was removed. Cells were rinsed four times with PBS with Ca^2+ or Mg^2+, and then fixed in 4% paraformaldehyde (PFA) in PBS at pH 7.4 for 10 minutes at room temperature. Cells were then washed 3 times in PBS to remove PFA before fluorescent imaging. Fluorescent images were visualised using a Nikon TE2000E inverted fluorescent microscope (10× magnification, 0.3 numerical aperture), and captured using a Digital Sight CCD camera and Eclipse Net software (Nikon). Three images within each well from three independent experiments were taken for analysis and the total number of cells showing dye uptake from those that had been loaded were counted manually by masked observers.\nas §1, with “1987),” for “1987, Experimental cell research 168:422-430),”", "note": "Like-named read-outs stand apart in the source and are kept apart here.", "data": [{"molecule": "CC1(C)[C@@H](OC(=O)CCC(=O)O)CC[C@]2(C)[C@H]3C(=O)C=C4[C@@H]5C[C@@](C)(C(=O)O)CC[C@]5(C)CC[C@@]4(C)[C@]3(C)CC[C@@H]12", "note": "[CBX, Carbenoxolone]", "values": [{"measurement": "LY positive cells compared to the control", "setting": "hCMVEC, 100 μM, 2-hour exposure, FIG. 2A", "result": "16.3±1.1", "unit": "%"}, {"measurement": "LY dye transfer, % of the untreated control", "setting": "hCMVEC, 100 μM, 2-hour exposure, FIG. 5, untreated control 100±4.5%", "result": "15.3±1.8", "unit": "%"}, {"measurement": "LY dye transfer compared to native Peptide5 (in words)", "setting": "hCMVEC, 100 μM, FIG. 2", "result": "significantly more than the native Peptide5"}, {"measurement": "LY dye transfer compared to untreated control (in words)", "setting": "hCMVEC, 100 μM, FIG. 2", "result": "significantly reduced"}]}, {"molecule": "VDCFLSRPTEKT [Peptide5]", "values": [{"measurement": "LY dye transfer compared to untreated control (in words)", "result": "significantly attenuated LY dye transfer"}, {"measurement": "LY dye transfer, % of the untreated control", "result": "79.4±3.9", "unit": "%"}, {"measurement": "LY positive cells compared to the control", "result": "56.2±2.6", "unit": "%"}]}]}
